Consider twelve molecules from patent publication US4764521A, “Leukotriene antagonists and a method of use there as” (Eli Lilly and Company, priority 1986, dated 1988).

Assay [1] relates to LTD4 evoked ileal contractions (guinea pig ileum). As to the kind of experiment: Inhibition of LTD4 evoked contractions in isolated ileum (single submaximal LTD4 response, five minute drug exposure). Type of assay: cell-based, Male, Hartley guinea pigs. As to conditions: Cavia porcellus, read-out: Percent inhibition of LTD4 evoked ileal contractions; for inhibition at 1 µM: Compound concentration 1 × 10^-6 M; for inhibition at 3 µM: Compound concentration 3 × 10^-6 M; for inhibition at 0.1 µM: Compound concentration 1 × 10^-7 M; for inhibition at 0.3 µM: Compound concentration 3 × 10^-7 M. The procedure:
(§1) A section of terminal ileum was removed, the lumen cleaned, and the tissue divided into 2.5 cm. segments. The ilea were mounted in 10 ml. tissue baths containing Krebs-bicarbonate solution of the following composition in mmoles/ liter: KCl, 4.6; CaCl2 ·2H2 O, 1.2; KH2 PO4, 1.2; MgSO4 ·7H2 O, 1.2; NaCl, 118.2; NaHCO3, 24.8; and dextrose, 10.0. The bath fluid was maintained at 37° C. and aerated with 95 percent oxygen and 5 percent CO2. In addition, the buffer contained 1×10^- 6M atropine to reduce ileal spontaneous activity. Isometric measurements were made with a Grass FTO3C force-displacement transducer and recorded on a Grass polygraph as change in grams of force. A passive force of 0.5 g. was applied to the tissues. After an appropriate equilibration period, single submaximal control responses to pure LTD4 were obtained. Following a five minute exposure of the ileum to an experimental drug, the control concentration of LTD4 was added to the tissue bath. The response of the ileum to LTD4 in the presence of the drug was compared to the response in the absence of the drug. For some of the drugs in this series a more detailed analysis of LTD4 antagonism was made. In these experiments, cumulative concentration-response curves were obtained to LTD4 in guinea pig ileum and trachea. This was followed by a 30 minute incubation with various concentrations of the experimental drug. The concentration response curve to LTD4 was then repeated in the presence of the antagonist. Only one concentration of antagonist was used on a single tissue. KB values were calculated by the method of Furchgott [Ann. N.Y. Acad. Sci., 139, 553 (1967)]using the following equation. [formula]

The target in assay [2] is T1, LTD4 (guinea pig ileum and trachea) (Cavia porcellus, UniProt Q2NNR5).
T1 construct: A section of terminal ileum was removed, the lumen cleaned, and the tissue divided into 2.5 cm. segments; from tissue; host or cells: isolated ileum and trachea of guinea pig (ileum: male Hartley, terminal ileum)
T1 sequence (Q2NNR5 1-340): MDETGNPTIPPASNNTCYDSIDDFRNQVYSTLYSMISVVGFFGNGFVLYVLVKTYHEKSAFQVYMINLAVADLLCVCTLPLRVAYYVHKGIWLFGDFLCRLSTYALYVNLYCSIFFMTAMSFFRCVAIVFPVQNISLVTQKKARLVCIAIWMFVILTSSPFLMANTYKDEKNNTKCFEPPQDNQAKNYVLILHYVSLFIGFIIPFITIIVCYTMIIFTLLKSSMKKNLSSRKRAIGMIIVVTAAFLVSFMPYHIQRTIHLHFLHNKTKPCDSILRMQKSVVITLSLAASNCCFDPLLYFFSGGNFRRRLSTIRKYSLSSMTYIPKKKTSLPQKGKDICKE
The assay can be described thus: LTD4 antagonism, cumulative concentration-response curves to LTD4 (KB / pA2, Schild). The note with it: negative log of KB, 30 minute incubation. Type of assay: cell-based. The procedure: as §1, with “Male, Hartley guinea pigs weighing 200-450 grams were killed by decapitation. A section” for “A section”
Dose ratio refers to the concentration of agonist required to elicit 50 percent of the maximal response (ED50) in the presence of the antagonist divided by the ED50 in the absence of the antagonist. Calculations were performed with the aid of a computer and a digital plotter.

For orientation: inhibition means how much of the control response was suppressed. For the molecule `CCCc1c(OCCCCCC(=O)O)ccc(Cl)c1Cl` [Example 1, 6-(2-Propyl-3,4-dichlorophenoxy)hexanoic acid], in assay [1], the inhibition at 1 µM is 51% and the inhibition at 3 µM was determined as 78%.
As usually defined, the Kb is the equilibrium dissociation constant of an antagonist, usually derived from a functional assay. The molecule `CCCc1c(OCCCCc2nnn[nH]2)ccc(Cl)c1Cl` [Example 2, 5-[4-(2-Propyl-3,4-dichlorophenoxy)butyl]-tetrazole] gave a Kb in assay [2] of 100 nM. Besides, in assay [1], the inhibition at 1 µM was 94%, the inhibition at 0.1 µM stood at 56% and the inhibition at 0.3 µM was 70%.
Turning to `CCCc1c(OCCCCCc2nnn[nH]2)ccc(Cl)c1Cl` [Example 3, 5-[5-(2-Propyl-3,4-dichlorophenoxy)pentyl]-tetrazole], in assay [2] (*estimated), the Kb was 251 nM. In assay [1], the inhibition at 1 µM is 75%, the inhibition at 3 µM was 92% and the inhibition at 0.3 µM is 51%.
For orientation: pA2 means a measure of antagonist potency on a negative log scale. With `CCCc1c(OCCCCCCc2nn[nH]n2)ccc(Cl)c1Cl` [Example 4, 5-[6-(2-Propyl-3,4-dichlorophenoxy)hexyl]-tetrazole], the pA2 in assay [2] (*estimated) is on record as 7.0. Besides, in assay [1], the inhibition at 1 µM turned out to be 84% and the inhibition at 3 µM is 96%.
Regarding `CCCc1c(OCCCCc2nnn[nH]2)ccc(C(C)=O)c1Cl` [Example 5, 5-[4-(2-Propyl-3-chloro-4-acetylphenoxy)butyl]-tetrazole], the Kb in assay [2] (*estimated) was 105 nM. In assay [1], the inhibition at 0.1 µM was 49% and the inhibition at 0.3 µM was 73%.
Take `CCCCCCCCc1c(OCCCCCCc2nnn[nH]2)ccc(Cl)c1Cl` [Example 6, 5-[6-(2-Octyl-3,4-dichlorophenoxy)hexyl]-tetrazole]: in assay [1], the inhibition at 1 µM amounted to 53% and the inhibition at 3 µM stood at 59%.
`CCCCCCCCCCCCc1c(OCCCCCc2nnn[nH]2)ccc(Cl)c1Cl` [Example 7, 5-[5-(2-Dodecyl-3,4-dichlorophenoxy)pentyl]tetrazole]: the inhibition at 3 µM in assay [1] stood at 16%.
With `CCCc1c(OCCCSc2nn[nH]n2)ccc(Cl)c1Cl` [Example 8, 5-[3-(2-Propyl1-3,4-dichlorophenoxy)propanethio]-tetrazole], in assay [1], the inhibition at 0.1 µM is 59% and the inhibition at 0.3 µM amounted to 79%.
In the case of `CCCCCc1c(OCCCCCC(=O)O)ccc(Cl)c1Cl` [Example 9, 6-(2-Pentyl-3,4-dichlorophenoxy)hexanoic acid], in assay [1], the inhibition at 1 µM came out at 21% and the inhibition at 3 µM worked out at 57%.
`O=C(O)CCCCCOc1ccc(Cl)c(Cl)c1CCO` [Example 10, 6-[2-(2-Hydroxyethyl)-3,4-dichlorophenoxy]hexanoic acid]: in assay [1], the inhibition at 3 µM stood at 22%.
For `CCCc1c(OCCCCc2nnn[nH]2)ccc(Cl)c1O` [Example 11, 5-[4-(2-Propyl-3-hydroxy-4-chlorophenoxy)butyl]-tetrazole], the Kb in assay [2] (*estimated) was 3160 nM. In assay [1], the inhibition at 3 µM came to 20%.
As for `CCCc1c(OCCCCCCC(=O)O)ccc(Cl)c1Cl` [Example 12, 7-(2-Propyl-3,4-dichlorophenoxy)heptanoic acid], in assay [1], the inhibition at 3 µM amounted to 31%.
